Results from the supplement of paper PMC11208160.

assay: recombinant UMI read abundance after kanamycin selection (control-corrected) (log10(CPM+1)); higher = more efficient recombination; extreme values may be limits of the assay; sequences stand for … in AGTGCAGAGAAAATCGGCCAGTTTTCTCTGCCTGCAGTCCGCATGCCGTGGGACCCCTTGGGTTCTAACCTGTTGCCTAGATTTATGCAGCGGACTGCCTTTCTCCCAAAGTGATAAACCGG…AGGTTGGTTTCACT; site = the 11-nt donor
Method: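 Pooled E. coli donor-specificity screen for the IS621 bridge recombinase. Each library member carries a reprogrammed 11-nt donor and a full-length LE bridge RNA expressed in cis from the natural promoter, with a paired donor-binding loop (8-nt LDG + 4-nt RDG) and a target-binding loop fixed to T5. It is co-electroporated with a T5 target plasmid; recombinase is induced with 0.07 mM IPTG and recombinants are selected on kanamycin. UMIs are counted as CPM, averaged over two biological replicates and corrected by the unselected control. Molecule = full bridge RNA written as DNA, built from the T5 scaffold: LDG = donor specificity nt 1-8, RDG = reverse complement of nt 8-11.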
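Also: IS621 bridge recombinase in Escherichia coli cells against a fixed T5 target plasmid.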

Row | Sequence | recombinant UMI read abundance (log10)
1 | AAAAAGGCATGGACCGGTTTTCCCGGTAATCCGTATTTGCT (site AAAAAGGCTAG) | 1.88
2 | AAAAAGGCATGGACCGGTTTTCCCGGTAATCCGTATTTGCT (site ACAAAGGCTAG) | 1.19
3 | AAAAAGGCATGGACCGGTTTTCCCGGTAATCCGTATTTGCT (site AGAAAGGCTAG) | 0.722
4 | AAAAAGGCATGGACCGGTTTTCCCGGTAATCCGTATTTGCT (site ATAAAGGCTAG) | 1.59
5 | AAAACCACATGGACCGGTTTTCCCGGTAATCCGTATTTGCT (site AAAACCACTAG) | 1.82
6 | AAAATATCATGGACCGGTTTTCCCGGTAATCCGTATTTGCA (site AAAATATCTTG) | 2.21
7 | AAAATATCATGGACCGGTTTTCCCGGTAATCCGTATTTGCA (site ACAGTATCTTG) | 1.88
8 | AAACGCACATGGACCGGTTTTCCCGGTAATCCGTATTTGGG (site AAACGCACTCC) | 0.0145
9 | AAACGGGCATGGACCGGTTTTCCCGGTAATCCGTATTTGCG (site AAACGGGCTCG) | 0.661
10 | AAACTGTCATGGACCGGTTTTCCCGGTAATCCGTATTTGCC (site AAACTGTCTGG) | 1.79
11 | AAACTGTCATGGACCGGTTTTCCCGGTAATCCGTATTTGTT (site AAACTGTCTAA) | 1.97
12 | AAACTTGCATGGACCGGTTTTCCCGGTAATCCGTATTTGGA (site AAACTTGCTTC) | 0.688
13 | AAAGATCCATGGACCGGTTTTCCCGGTAATCCGTATTTGGC (site AAAGATCCTGC) | 0
14 | AAAGCCCCATGGACCGGTTTTCCCGGTAATCCGTATTTGAA (site AAAGCCCCTTT) | 0.767
15 | AAAGCCTCATGGACCGGTTTTCCCGGTAATCCGTATTTGAA (site AAAGCCTCTTT) | 2.63
16 | AAAGCTCCATGGACCGGTTTTCCCGGTAATCCGTATTTGTA (site AAAGCTCCTTA) | 1.42
17 | AAAGGCACATGGACCGGTTTTCCCGGTAATCCGTATTTGAA (site AAAGGCACTTT) | 0.56
18 | AAAGGGACATGGACCGGTTTTCCCGGTAATCCGTATTTGAG (site AAAGGGACTCT) | 1.76
19 | AAAGGGCCATGGACCGGTTTTCCCGGTAATCCGTATTTGAG (site AAAGGGCCTCT) | 0.0224
20 | AAAGTAGCATGGACCGGTTTTCCCGGTAATCCGTATTTGCT (site AAAGTAGCTAG) | 1.94
21 | AAAGTCACATGGACCGGTTTTCCCGGTAATCCGTATTTGGG (site AAAGTCACTCC) | 0.0214
22 | AAAGTCACATGGACCGGTTTTCCCGGTAATCCGTATTTGGG (site CAAGTCACTCC) | 0.458
23 | AAAGTCACATGGACCGGTTTTCCCGGTAATCCGTATTTGGG (site GAAGTCACTCC) | 0.00503
24 | AAAGTCACATGGACCGGTTTTCCCGGTAATCCGTATTTGGG (site TAAGTCACTCC) | 0.158

Row | Sequence | recombinant UMI read abundance (log10)
25 | AAATACACATGGACCGGTTTTCCCGGTAATCCGTATTTGCT (site AAATACACTAG) | 2.41
26 | AAATATGCATGGACCGGTTTTCCCGGTAATCCGTATTTGGA (site AAATATGCTTC) | 1.25
27 | AAATATGCATGGACCGGTTTTCCCGGTAATCCGTATTTGGA (site AACTATGCTTC) | 1
28 | AAATATGCATGGACCGGTTTTCCCGGTAATCCGTATTTGGA (site AAGTATGCTTC) | 1.23
29 | AAATATGCATGGACCGGTTTTCCCGGTAATCCGTATTTGGA (site AATTATGCTTC) | 0.905
30 | AAATCGACATGGACCGGTTTTCCCGGTAATCCGTATTTGGT (site AAATCGACTAC) | 0.133
31 | AAATCGTCATGGACCGGTTTTCCCGGTAATCCGTATTTGTC (site AAATCGTCTGA) | 1.91
32 | AAATGAGCATGGACCGGTTTTCCCGGTAATCCGTATTTGGG (site AAATGAGCTCC) | 0.252
33 | AAATGAGCATGGACCGGTTTTCCCGGTAATCCGTATTTGGG (site CAATGAGCTCC) | 0.247
34 | AAATGAGCATGGACCGGTTTTCCCGGTAATCCGTATTTGGG (site GAATGAGCTCC) | 0.00588
35 | AAATGAGCATGGACCGGTTTTCCCGGTAATCCGTATTTGGG (site TAATGAGCTCC) | 0.46
36 | AAATGATCATGGACCGGTTTTCCCGGTAATCCGTATTTGAG (site AAATGATCTCT) | 2.71
37 | AAATGCACATGGACCGGTTTTCCCGGTAATCCGTATTTGGG (site AAATGCACTCC) | 0.0107
38 | AAATGCTCATGGACCGGTTTTCCCGGTAATCCGTATTTGAA (site AAATGCTCTTT) | 1.66
39 | AAATGCTCATGGACCGGTTTTCCCGGTAATCCGTATTTGAA (site CAATGCTCTTT) | 1.65
40 | AAATGCTCATGGACCGGTTTTCCCGGTAATCCGTATTTGAA (site GAATGCTCTTT) | 0.961
41 | AAATGCTCATGGACCGGTTTTCCCGGTAATCCGTATTTGAA (site TAATGCTCTTT) | 1.17
42 | AAATGGCCATGGACCGGTTTTCCCGGTAATCCGTATTTGCA (site AAATGGCCTTG) | 0.00935
43 | AAATGGCCATGGACCGGTTTTCCCGGTAATCCGTATTTGCA (site CAATGGCCTTG) | 0
44 | AAATGGCCATGGACCGGTTTTCCCGGTAATCCGTATTTGCA (site GAATGGCCTTG) | 0
45 | AAATGGCCATGGACCGGTTTTCCCGGTAATCCGTATTTGCA (site TAATGGCCTTG) | 0
46 | AAATTTGCATGGACCGGTTTTCCCGGTAATCCGTATTTGGC (site AAATTTGCTGC) | 0
47 | AACAAACCATGGACCGGTTTTCCCGGTAATCCGTATTTGGT (site AACAAACCTAC) | 0
48 | AACAAACCATGGACCGGTTTTCCCGGTAATCCGTATTTGGT (site CACAAACCTAC) | 0

Row | Sequence | recombinant UMI read abundance (log10)
49 | AACAAACCATGGACCGGTTTTCCCGGTAATCCGTATTTGGT (site GACAAACCTAC) | 0
50 | AACAAACCATGGACCGGTTTTCCCGGTAATCCGTATTTGGT (site TACAAACCTAC) | 0.337
51 | AACACCCCATGGACCGGTTTTCCCGGTAATCCGTATTTGAG (site AACACCCCTCT) | 0.0941
52 | AACACTGCATGGACCGGTTTTCCCGGTAATCCGTATTTGAG (site AACACTGCTCT) | 1.31
53 | AACATACCATGGACCGGTTTTCCCGGTAATCCGTATTTGGA (site AACATACCTTC) | 0.0114
54 | AACCACTCATGGACCGGTTTTCCCGGTAATCCGTATTTGCC (site AACCACTCTGG) | 3.01
55 | AACCATCCATGGACCGGTTTTCCCGGTAATCCGTATTTGCC (site AACCATCCTGG) | 0.00555
56 | AACCCGGCATGGACCGGTTTTCCCGGTAATCCGTATTTGGA (site AACCCGGCTTC) | 0.181
57 | AACCCTCCATGGACCGGTTTTCCCGGTAATCCGTATTTGAT (site AACCATCCTAT) | 0.00728
58 | AACCCTCCATGGACCGGTTTTCCCGGTAATCCGTATTTGAT (site AACCCTCCTAT) | 0.115
59 | AACCCTCCATGGACCGGTTTTCCCGGTAATCCGTATTTGAT (site AACCGTCCTAT) | 0.015
60 | AACCCTCCATGGACCGGTTTTCCCGGTAATCCGTATTTGAT (site AACCTTCCTAT) | 0.011
61 | AACCGCCCATGGACCGGTTTTCCCGGTAATCCGTATTTGAA (site AACCGCCCTTT) | 0.156
62 | AACCGTCCATGGACCGGTTTTCCCGGTAATCCGTATTTGTT (site AACCGTCCTAA) | 0.00892
63 | AACCGTCCATGGACCGGTTTTCCCGGTAATCCGTATTTGTT (site AACCGTCCTAC) | 0.0168
64 | AACCGTCCATGGACCGGTTTTCCCGGTAATCCGTATTTGTT (site AACCGTCCTAG) | 0.794
65 | AACCGTCCATGGACCGGTTTTCCCGGTAATCCGTATTTGTT (site AACCGTCCTAT) | 0.0199
66 | AACCTCTCATGGACCGGTTTTCCCGGTAATCCGTATTTGCC (site AACCTCTCTGG) | 2.62
67 | AACGAGCCATGGACCGGTTTTCCCGGTAATCCGTATTTGGC (site AACGAGCCTGC) | 0
68 | AACGATCCATGGACCGGTTTTCCCGGTAATCCGTATTTGGC (site AACGATCCTGC) | 1.07
69 | AACGGCCCATGGACCGGTTTTCCCGGTAATCCGTATTTGTT (site AACGGCCCTAA) | 0
70 | AACGGCCCATGGACCGGTTTTCCCGGTAATCCGTATTTGTT (site CACGGCCCTAA) | 0.071
71 | AACGGCCCATGGACCGGTTTTCCCGGTAATCCGTATTTGTT (site GACGGCCCTAA) | 0.0173
72 | AACGGCCCATGGACCGGTTTTCCCGGTAATCCGTATTTGTT (site TACGGCCCTAA) | 0.00583
